Results as given in ChEMBL document CHEMBL3885881, “DrugMatrix”.

Species: Rattus norvegicus
Test: DrugMatrix - Regimen: Daily Repeat
Format: toxicity, organism-based, Sprague-Dawley
Set-up: regimen Daily Repeat, gender Male, age 6-8 weeks
Settings: in vivo, iv, vehicle 100 % SALINE; for ABSOLUTE BASOPHIL / ABSOLUTE EOSINOPHIL / ABSOLUTE LYMPHOCYTE / ABSOLUTE MONOCYTE / ABSOLUTE SEGMENTED NEUTROPHIL / BASOPHIL / EOSINOPHIL / ERYTHROCYTE COUNT / HEMATOCRIT / HEMOGLOBIN / LEUKOCYTE COUNT / LYMPHOCYTE / MEAN CORPUSCULAR HEMOGLOBIN / MEAN CORPUSCULAR HEMOGLOBIN CONCENTRATION / MEAN CORPUSCULAR VOLUME / MONOCYTE / NEUTROPHIL / NUCLEATED RED BLOOD CELLS / PLATELET COUNT: tissue Blood; for ALANINE AMINOTRANSFERASE / ALBUMIN / ALKALINE PHOSPHATASE / ASPARTATE AMINOTRANSFERASE / BLOOD UREA NITROGEN / CARBON DIOXIDE / CHLORIDE / CHOLESTEROL / CREATINE PHOSPHOKINASE / CREATININE / GLUCOSE / LACTATE DEHYDROGENASE / LIPASE / PHOSPHORUS / POTASSIUM / SODIUM / TOTAL BILIRUBIN / TOTAL PROTEIN / URIC ACID: tissue Plasma
[1] = 120 mg/kg, 72 h, dose level High, time 3 day
[2] = 120 mg/kg, 120 h, dose level High, time 5 day
[3] = […], 72 h, dose 8.2 mg/Kg, dose level Low, time 3 day
[4] = […], 120 h, dose 8.2 mg/Kg, dose level Low, time 5 day

SMILES: [H]/N=C(/N)N[C@H]1[C@H](O)[C@@H](O)[C@H](O[C@@H]2O[C@@H](C)[C@](O)(C=O)[C@H]2O[C@@H]2O[C@@H](CO)[C@H](O)[C@@H](O)[C@@H]2NC)[C@@H](N/C(N)=N\[H])[C@@H]1O [STREPTOMYCIN]
- ABSOLUTE BASOPHIL [1]: 0 CELLS/uL
- ABSOLUTE EOSINOPHIL [1]: 272.33 CELLS/uL
- ABSOLUTE LYMPHOCYTE [1]: 11274.33 CELLS/uL
- ABSOLUTE MONOCYTE [1]: 397 CELLS/uL
- ABSOLUTE SEGMENTED NEUTROPHIL [1]: 1289.67 CELLS/uL
- BASOPHIL [1]: 0%
- EOSINOPHIL [1]: 2%
- ERYTHROCYTE COUNT [1]: 5.88 x10E6/uL
- HEMATOCRIT [1]: 36.13%
- HEMOGLOBIN [1]: 13.67 G/DL
- LEUKOCYTE COUNT [1]: 13.23 x10E3/uL
- LYMPHOCYTE [1]: 85.33%
- MEAN CORPUSCULAR HEMOGLOBIN [1]: 23.3 pg
- MEAN CORPUSCULAR HEMOGLOBIN CONCENTRATION [1]: 37.8 G/DL
- MEAN CORPUSCULAR VOLUME [1]: 61.53 fL
- MONOCYTE [1]: 3%
- NEUTROPHIL [1]: 9.67%
- NUCLEATED RED BLOOD CELLS [1]: 0.33 /100WBC
- PLATELET COUNT [1]: 1314 x10E3/uL
- ALANINE AMINOTRANSFERASE [1]: 43 u/L
- ALBUMIN [1]: 4.27 G/DL
- ALKALINE PHOSPHATASE [1]: 316.67 u/L
- ASPARTATE AMINOTRANSFERASE [1]: 75.67 u/L
- BLOOD UREA NITROGEN [1]: 18.33 mg/dL
- CARBON DIOXIDE [1]: 24.67 mmol/L
- CHLORIDE [1]: 106 MEQ/L
- CHOLESTEROL [1]: 86 mg/dL
- CREATINE PHOSPHOKINASE [1]: 233.67 u/L
- CREATININE [1]: 0.28 mg/dL
- GLUCOSE [1]: 150.33 mg/dL
- LACTATE DEHYDROGENASE [1]: 355.67 u/L
- LIPASE [1]: 9 u/L
- PHOSPHORUS [1]: 12.8 mg/dL
- POTASSIUM [1]: 6.3 MEQ/L
- SODIUM [1]: 147.3 MEQ/L
- TOTAL BILIRUBIN [1]: 0.23 mg/dL
- TOTAL PROTEIN [1]: 6.03 G/DL
- URIC ACID [1]: 1.3 mg/dL
- ABSOLUTE BASOPHIL [2]: 0 CELLS/uL
- ABSOLUTE EOSINOPHIL [2]: 0 CELLS/uL
- ABSOLUTE LYMPHOCYTE [2]: 15247.67 CELLS/uL
- ABSOLUTE MONOCYTE [2]: 224.67 CELLS/uL
- ABSOLUTE SEGMENTED NEUTROPHIL [2]: 2294.33 CELLS/uL
- BASOPHIL [2]: 0%
- EOSINOPHIL [2]: 0%
- ERYTHROCYTE COUNT [2]: 5.9 x10E6/uL
- HEMATOCRIT [2]: 36.63%
- HEMOGLOBIN [2]: 13.87 G/DL
- LEUKOCYTE COUNT [2]: 17.77 x10E3/uL
- LYMPHOCYTE [2]: 85.33%
- MEAN CORPUSCULAR HEMOGLOBIN [2]: 23.5 pg
- MEAN CORPUSCULAR HEMOGLOBIN CONCENTRATION [2]: 37.83 G/DL
- MEAN CORPUSCULAR VOLUME [2]: 62.1 fL
- MONOCYTE [2]: 1.33%
- NEUTROPHIL [2]: 13.33%
- NUCLEATED RED BLOOD CELLS [2]: 0 /100WBC
- PLATELET COUNT [2]: 1316.67 x10E3/uL
- ALANINE AMINOTRANSFERASE [2]: 42.33 u/L
- ALBUMIN [2]: 4.33 G/DL
- ALKALINE PHOSPHATASE [2]: 270 u/L
- ASPARTATE AMINOTRANSFERASE [2]: 91 u/L
- BLOOD UREA NITROGEN [2]: 18.67 mg/dL
- CARBON DIOXIDE [2]: 25 mmol/L
- CHLORIDE [2]: 104 MEQ/L
- CHOLESTEROL [2]: 61 mg/dL
- CREATINE PHOSPHOKINASE [2]: 601.67 u/L
- CREATININE [2]: 0.19 mg/dL
- GLUCOSE [2]: 177.67 mg/dL
- LACTATE DEHYDROGENASE [2]: 433 u/L
- LIPASE [2]: 8.67 u/L
- PHOSPHORUS [2]: 14 mg/dL
- POTASSIUM [2]: 6.21 MEQ/L
- SODIUM [2]: 147.03 MEQ/L
- TOTAL BILIRUBIN [2]: 0.13 mg/dL
- TOTAL PROTEIN [2]: 6.3 G/DL
- URIC ACID [2]: 1.83 mg/dL
- ABSOLUTE BASOPHIL [3]: 0 CELLS/uL
- ABSOLUTE EOSINOPHIL [3]: 0 CELLS/uL
- ABSOLUTE LYMPHOCYTE [3]: 16010 CELLS/uL
- ABSOLUTE MONOCYTE [3]: 231.33 CELLS/uL
- ABSOLUTE SEGMENTED NEUTROPHIL [3]: 1025.33 CELLS/uL
- BASOPHIL [3]: 0%
- EOSINOPHIL [3]: 0%
- ERYTHROCYTE COUNT [3]: 6.28 x10E6/uL
- HEMATOCRIT [3]: 40.03%
- HEMOGLOBIN [3]: 14.6 G/DL
- LEUKOCYTE COUNT [3]: 17.27 x10E3/uL
- LYMPHOCYTE [3]: 92.67%
- MEAN CORPUSCULAR HEMOGLOBIN [3]: 23.33 pg
- MEAN CORPUSCULAR HEMOGLOBIN CONCENTRATION [3]: 36.47 G/DL
- MEAN CORPUSCULAR VOLUME [3]: 63.9 fL
- MONOCYTE [3]: 1.33%
- NEUTROPHIL [3]: 6%
- NUCLEATED RED BLOOD CELLS [3]: 0 /100WBC
- PLATELET COUNT [3]: 1313.67 x10E3/uL
- ALANINE AMINOTRANSFERASE [3]: 51.67 u/L
- ALBUMIN [3]: 4.5 G/DL
- ALKALINE PHOSPHATASE [3]: 417.33 u/L
- ASPARTATE AMINOTRANSFERASE [3]: 82.67 u/L
- BLOOD UREA NITROGEN [3]: 13.67 mg/dL
- CARBON DIOXIDE [3]: 23 mmol/L
- CHLORIDE [3]: 105.33 MEQ/L
- CHOLESTEROL [3]: 84 mg/dL
- CREATINE PHOSPHOKINASE [3]: 198.33 u/L
- CREATININE [3]: 0.22 mg/dL
- GLUCOSE [3]: 155.33 mg/dL
- LACTATE DEHYDROGENASE [3]: 234 u/L
- LIPASE [3]: 9 u/L
- PHOSPHORUS [3]: 14.77 mg/dL
- POTASSIUM [3]: 7.14 MEQ/L
- SODIUM [3]: 148.8 MEQ/L
- TOTAL BILIRUBIN [3]: 0.2 mg/dL
- TOTAL PROTEIN [3]: 6.33 G/DL
- URIC ACID [3]: 2.1 mg/dL
- ABSOLUTE BASOPHIL [4]: 0 CELLS/uL
- ABSOLUTE EOSINOPHIL [4]: 277 CELLS/uL
- ABSOLUTE LYMPHOCYTE [4]: 11716.67 CELLS/uL
- ABSOLUTE MONOCYTE [4]: 225 CELLS/uL
- ABSOLUTE SEGMENTED NEUTROPHIL [4]: 1048 CELLS/uL
- BASOPHIL [4]: 0%
- EOSINOPHIL [4]: 2%
- ERYTHROCYTE COUNT [4]: 5.69 x10E6/uL
- HEMATOCRIT [4]: 36.1%
- HEMOGLOBIN [4]: 13.83 G/DL
- LEUKOCYTE COUNT [4]: 13.27 x10E3/uL
- LYMPHOCYTE [4]: 88.67%
- MEAN CORPUSCULAR HEMOGLOBIN [4]: 24.27 pg
- MEAN CORPUSCULAR HEMOGLOBIN CONCENTRATION [4]: 38.33 G/DL
- MEAN CORPUSCULAR VOLUME [4]: 63.43 fL
- MONOCYTE [4]: 1.67%
- NEUTROPHIL [4]: 7.67%
- NUCLEATED RED BLOOD CELLS [4]: 0 /100WBC
- PLATELET COUNT [4]: 1319.67 x10E3/uL
- ALANINE AMINOTRANSFERASE [4]: 44 u/L
- ALBUMIN [4]: 4.43 G/DL
- ALKALINE PHOSPHATASE [4]: 308.33 u/L
- ASPARTATE AMINOTRANSFERASE [4]: 87.33 u/L
- BLOOD UREA NITROGEN [4]: 20.67 mg/dL
- CARBON DIOXIDE [4]: 24.33 mmol/L
- CHLORIDE [4]: 106.67 MEQ/L
- CHOLESTEROL [4]: 58.67 mg/dL
- CREATINE PHOSPHOKINASE [4]: 307 u/L
- CREATININE [4]: 0.18 mg/dL
- GLUCOSE [4]: 143 mg/dL
- LACTATE DEHYDROGENASE [4]: 514.33 u/L
- LIPASE [4]: 9 u/L
- PHOSPHORUS [4]: 12.6 mg/dL
- POTASSIUM [4]: 6.63 MEQ/L
- SODIUM [4]: 147.1 MEQ/L
- TOTAL BILIRUBIN [4]: 0.17 mg/dL
- TOTAL PROTEIN [4]: 6.27 G/DL
- URIC ACID [4]: 1.5 mg/dL
